In ChEMBL document CHEMBL1201862, “PubChem BioAssay data set” (2004):
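Each compound was tested at five concentrations against cells in 96-well plates for 48 hours. Abbreviation: GI50, concentration required for 50% inhibition of growth.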 Calls of active or inactive are those of the source. Cut-off read from the data, not from the text of the source: active = GI50 up to about 1.1 µM and inactive = higher.

Legend:
Test in all cases: NCI anticancer screen, dose series, 48 h
[1] = test system: 786-0
[2] = test system: A498
[3] = test system: A549
[4] = test system: ACHN
[5] = test system: CAKI-1
[6] = test system: CCRF-CEM
[7] = test system: COLO 205
[8] = test system: DLD-1
[9] = test system: DMS-114
[10] = test system: DMS-273
[11] = test system: EKVX
[12] = test system: HCC 2998
[13] = test system: HCT-116
[14] = test system: HCT-15
[15] = test system: HL-60
[16] = test system: HOP-18
[17] = test system: HOP-62
[18] = test system: HOP-92
[19] = test system: HT-29
[20] = test system: IGROV-1
[21] = test system: K562
[22] = test system: KM-20L2
[23] = test system: KM12
[24] = test system: LOX IMVI
[25] = test system: LXFL 529
[26] = test system: M14
[27] = test system: M19-MEL
[28] = test system: MOLT-4
[29] = test system: Malme-3M
[30] = test system: NCI-H226
[31] = test system: NCI-H23
[32] = test system: NCI-H460
[33] = test system: NCI-H522
[34] = test system: OVCAR-3
[35] = test system: OVCAR-4
[36] = test system: OVCAR-5
[37] = test system: OVCAR-8
[38] = test system: RPMI-8226
[39] = test system: RXF 393
[40] = test system: RXF 631
[41] = test system: SF-268
[42] = test system: SF-295
[43] = test system: SK-OV-3
[44] = test system: SN12C
[45] = test system: SNB-19
[46] = test system: SNB-75
[47] = test system: SNB-78
[48] = test system: SR
[49] = test system: SW-620
[50] = test system: TK-10
[51] = test system: U-251
[52] = test system: UACC-257
[53] = test system: UACC-62
[54] = test system: UO-31
[55] = test system: XF498
[56] = test system: SF-539
[57] = test system: SK-MEL-28
[58] = test system: SK-MEL-2
[59] = test system: SK-MEL-5

In the case of `COC(=O)C(=O)C(C(=O)C(=O)Nc1ccc([N+](=O)[O-])cc1[N+](=O)[O-])c1nc2ccc([N+](=O)[O-])cc2nc1O` (stereo not drawn), the GI50 [1] is reported as > 100 µM (inactive), the GI50 [2] is reported as 76.9 µM (inactive) and the GI50 [3] is reported as > 100 µM (inactive). For the same compound, the GI50 [4] was > 100 µM (inactive), the GI50 [5] was > 100 µM (inactive) and the GI50 [6] was > 100 µM (inactive). For the same compound, the GI50 [7] was > 100 µM (inactive), the GI50 [8] was > 100 µM (inactive) and the GI50 [9] was > 100 µM (inactive). The GI50 [10] was > 100 µM (inactive), the GI50 [11] was 38.2 µM (inactive) and the GI50 [12] was > 100 µM (inactive). The GI50 [13] was > 100 µM (inactive), the GI50 [14] was > 100 µM and the GI50 [15] was > 100 µM (inactive). For the same compound, the GI50 [16] was 22.1 µM (inactive), the GI50 [17] was > 100 µM (inactive) and the GI50 [18] was > 100 µM (inactive). The GI50 [19] was > 100 µM (inactive), the GI50 [20] was > 100 µM (inactive) and the GI50 [21] was > 100 µM (inactive). The GI50 [22] was > 100 µM (inactive), the GI50 [23] was > 100 µM (inactive) and the GI50 [24] was > 100 µM (inactive). The GI50 [25] was > 100 µM (inactive), the GI50 [26] was > 100 µM (inactive) and the GI50 [27] was > 100 µM (inactive). The GI50 [28] was > 100 µM (inactive), the GI50 [29] was > 100 µM (inactive) and the GI50 [30] was > 100 µM (inactive). The GI50 [31] was > 100 µM (inactive), the GI50 [32] was > 100 µM (inactive) and the GI50 [33] was 50.1 µM (inactive). For the same compound, the GI50 [34] was > 100 µM (inactive), the GI50 [35] was > 100 µM (inactive) and the GI50 [36] was > 100 µM (inactive). The GI50 [37] was > 100 µM (inactive), the GI50 [38] was > 100 µM (inactive) and the GI50 [39] was 43.3 µM (inactive). The GI50 [40] was > 100 µM (inactive), the GI50 [41] was > 100 µM (inactive) and the GI50 [42] was > 100 µM (inactive). For the same compound, the GI50 [43] was > 100 µM (inactive), the GI50 [44] was > 100 µM (inactive) and the GI50 [45] was > 100 µM (inactive). For the same compound, the GI50 [46] was 14.6 µM (inactive), the GI50 [47] was > 100 µM (inactive) and the GI50 [48] was 43 µM (inactive). For the same compound, the GI50 [49] was > 100 µM (inactive), the GI50 [50] was > 100 µM (inactive) and the GI50 [51] was > 100 µM (inactive). The GI50 [52] was > 100 µM (inactive), the GI50 [53] was > 100 µM (inactive) and the GI50 [54] was 53 µM (inactive). The GI50 [55] was 76.7 µM (inactive).

`O=C(Nc1cc(Cl)c(Cl)cc1Cl)C(=O)C1C(=O)NC(=S)NC1=O` was tested, and the GI50 [1] was > 100 µM (inactive), the GI50 [2] was > 100 µM (inactive) and the GI50 [3] was > 100 µM (inactive). The GI50 [4] was > 100 µM (inactive), the GI50 [5] was > 100 µM (inactive) and the GI50 [6] was > 100 µM (inactive). The GI50 [7] was > 100 µM (inactive), the GI50 [8] was > 100 µM (inactive) and the GI50 [9] was > 100 µM (inactive). The GI50 [10] was > 100 µM (inactive), the GI50 [11] was > 100 µM (inactive) and the GI50 [12] was > 100 µM (inactive). For the same compound, the GI50 [13] was > 100 µM (inactive), the GI50 [14] was > 100 µM and the GI50 [15] was > 100 µM (inactive). The GI50 [16] was > 100 µM (inactive), the GI50 [17] was > 100 µM (inactive) and the GI50 [18] was > 100 µM (inactive). For the same compound, the GI50 [19] was > 100 µM (inactive), the GI50 [20] was > 100 µM (inactive) and the GI50 [21] was > 100 µM (inactive). For the same compound, the GI50 [22] was > 100 µM (inactive), the GI50 [23] was > 100 µM (inactive) and the GI50 [24] was > 100 µM (inactive). For the same compound, the GI50 [25] was > 100 µM (inactive), the GI50 [26] was > 100 µM (inactive) and the GI50 [27] was > 100 µM (inactive). The GI50 [28] was > 100 µM (inactive), the GI50 [29] was > 100 µM (inactive) and the GI50 [30] was > 100 µM (inactive). For the same compound, the GI50 [31] was > 100 µM (inactive), the GI50 [32] was > 100 µM (inactive) and the GI50 [33] was > 100 µM (inactive). The GI50 [35] was > 100 µM (inactive), the GI50 [36] was > 100 µM (inactive) and the GI50 [37] was > 100 µM (inactive). For the same compound, the GI50 [38] was > 100 µM (inactive), the GI50 [39] was > 100 µM (inactive) and the GI50 [40] was > 100 µM (inactive). For the same compound, the GI50 [41] was > 100 µM (inactive), the GI50 [42] was > 100 µM (inactive) and the GI50 [56] was > 100 µM (inactive). The GI50 [57] was > 100 µM (inactive), the GI50 [58] was > 100 µM (inactive) and the GI50 [59] was > 100 µM (inactive). The GI50 [43] was > 100 µM (inactive), the GI50 [44] was > 100 µM (inactive) and the GI50 [45] was > 100 µM (inactive). For the same compound, the GI50 [46] was > 100 µM (inactive), the GI50 [47] was > 100 µM (inactive) and the GI50 [48] was > 100 µM (inactive). The GI50 [49] was > 100 µM (inactive), the GI50 [50] was > 100 µM (inactive) and the GI50 [51] was > 100 µM (inactive). For the same compound, the GI50 [52] was > 100 µM (inactive), the GI50 [53] was > 100 µM (inactive) and the GI50 [54] was > 100 µM (inactive). The GI50 [55] was > 100 µM (inactive).
